Data published in US5622950A, “Pyrrolo-pyridine derivatives” (Merck, Sharp & Dohme Ltd., priority 1993, dated 1997).

How the values were obtained:
[1] = molecular target: T1, human dopamine D4 receptor subtype (Homo sapiens, UniProt P21917); assay: [3H]-Spiperone binding (displacement), human dopamine D4 receptor subtype; details: selectivity ratio from Ki values for D4 and D2 subtypes
T1 sequence (P21917 1-419): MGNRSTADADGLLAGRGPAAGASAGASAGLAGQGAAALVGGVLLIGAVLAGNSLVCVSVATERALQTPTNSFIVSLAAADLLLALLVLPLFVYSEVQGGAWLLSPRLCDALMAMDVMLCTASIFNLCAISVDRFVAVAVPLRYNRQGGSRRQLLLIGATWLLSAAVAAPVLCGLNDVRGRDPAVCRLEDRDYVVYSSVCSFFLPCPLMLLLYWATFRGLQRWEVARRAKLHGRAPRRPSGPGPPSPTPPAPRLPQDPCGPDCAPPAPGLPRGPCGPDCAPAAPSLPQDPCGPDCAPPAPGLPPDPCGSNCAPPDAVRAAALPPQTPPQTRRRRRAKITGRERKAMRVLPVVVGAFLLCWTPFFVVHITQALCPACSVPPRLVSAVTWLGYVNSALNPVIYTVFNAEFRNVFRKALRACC

[2] = molecular target: T2, human dopamine D2 receptor subtype (Homo sapiens, UniProt P14416); assay: [3H]-Spiperone binding (displacement), human dopamine D2 receptor subtype; details: human dopamine D2 receptor subtype expressed in clonal cell lines
T2 construct: expressed in transfected cells

[3] = tested on: spontaneous motor activity; assay: Sedation: effects on spontaneous motor activity of rats in novel cages equipped with photocells (number of cage crossings); format: in vivo; details: rat
From the text: Representative compounds according to the invention have been tested for their effects on spontaneous motor activity occasioned by placing rats in novel cages equipped with photocells in order to determine the number of cage crossings. This is an art-recognised model of the sedation potential of a given test compound.

[4] = tested on: apomorphine-induced stereotypy; assay: Extrapyramidal disorders: effect on apomorphine-induced stereotypy in the rat; format: in vivo
From the text: Representative compounds according to the invention have been tested for their effect on apomorphine-induced stereotypy in the rat. This is an art-recognised model of the potential to induce extrapyramidal side-effects.

T2 sequence (P14416 whole entry): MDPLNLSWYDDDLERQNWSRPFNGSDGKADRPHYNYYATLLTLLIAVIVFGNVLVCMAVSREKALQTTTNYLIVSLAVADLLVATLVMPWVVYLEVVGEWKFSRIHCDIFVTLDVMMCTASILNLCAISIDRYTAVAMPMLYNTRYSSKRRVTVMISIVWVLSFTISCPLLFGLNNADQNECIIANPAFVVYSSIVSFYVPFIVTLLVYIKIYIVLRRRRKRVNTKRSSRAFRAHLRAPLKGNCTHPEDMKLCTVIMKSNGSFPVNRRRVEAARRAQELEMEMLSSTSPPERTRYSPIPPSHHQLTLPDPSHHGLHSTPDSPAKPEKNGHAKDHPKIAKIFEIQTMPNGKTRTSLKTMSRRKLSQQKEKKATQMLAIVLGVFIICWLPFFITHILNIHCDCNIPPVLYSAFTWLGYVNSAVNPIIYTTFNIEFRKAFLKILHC

SMILES: COc1ccc(N2CCN(Cc3c[nH]c4ncccc34)CC2)cc1 [Example 2, 3-(4-[4-Methoxyphenyl]piperazin-1-yl)methyl-1H-pyrrolo [2,3-b]pyridine]
- D4:D2 ratio [1]: greater than 1150
- Ki [2]: > 1500 nM

SMILES: Clc1ccc(N2CCN(Cc3c[nH]c4ncccc34)CC2)cc1 [Example 5, 3-(4-[4-Chlorophenyl]piperazin-1-yl)methyl-1H-pyrrolo [2,3-b]pyridine]
- sedation (spontaneous motor activity) ([3]; doses of up to 10-30 mg/kg): no evidence for sedation
- potential to induce extrapyramidal side-effects (apomorphine-induced stereotypy) ([4]; doses up to 1.0 mg/kg): no potential to induce the extrapyramidal side-effects

SMILES: O=C(CCCN1CCC(O)(c2ccc(Cl)cc2)CC1)c1ccc(F)cc1 [haloperidol, reference compound]
- sedation (spontaneous motor activity) ([3]; dose of 1 mg/kg): marked sedation
- potential to elicit extrapyramidal side-effects (apomorphine-induced stereotypy) ([4]; doses of 0.5 and 1.0 mg/kg): significant potential to elicit extrapyramidal side-effects
